Test results from US6642227B2, “Inhibitors of c-Jun N-terminal kinases (JNK) and other protein kinases” (Vertex Pharmaceuticals Incorporated, priority 2001, dated 2003).

Tests used:
human Src kinase = target: T1, human Src kinase (Homo sapiens, UniProt P12931); experiment: Src inhibition assay (A: radioactivity-based or B: spectrophotometric coupled-enzyme assay); format: biochemical; settings: assay A or B not specified; read-out: Src Activity (Ki class A-C)
T1 construct: full length recombinant human Src kinase; purchased Upstate Biotechnology 14-117; host or cells: baculovirus-infected cells
T1 sequence (P12931 whole entry): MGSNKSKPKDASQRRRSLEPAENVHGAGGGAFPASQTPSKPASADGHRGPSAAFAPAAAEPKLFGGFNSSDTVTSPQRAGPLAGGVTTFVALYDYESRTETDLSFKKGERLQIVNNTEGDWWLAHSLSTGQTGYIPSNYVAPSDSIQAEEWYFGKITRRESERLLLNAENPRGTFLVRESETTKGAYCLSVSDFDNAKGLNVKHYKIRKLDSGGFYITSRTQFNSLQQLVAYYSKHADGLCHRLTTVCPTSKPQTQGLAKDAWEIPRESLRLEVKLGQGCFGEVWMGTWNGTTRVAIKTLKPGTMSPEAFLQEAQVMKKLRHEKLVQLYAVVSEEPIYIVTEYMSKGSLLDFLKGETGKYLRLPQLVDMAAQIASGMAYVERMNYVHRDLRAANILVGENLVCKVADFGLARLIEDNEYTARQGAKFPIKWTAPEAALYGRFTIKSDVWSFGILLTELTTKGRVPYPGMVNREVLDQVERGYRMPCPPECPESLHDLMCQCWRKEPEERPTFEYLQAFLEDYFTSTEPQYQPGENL
Procedure: The compounds were evaluated as inhibitors of human Src kinase using either a radioactivity-based assay or spectrophotometric assay.
The compounds were assayed as inhibitors of full length recombinant human Src kinase (from Upstate Biotechnology, cat. no. 14-117) expressed and purified from baculo viral cells. Src kinase activity was monitored by following the incorporation of ^33p from ATP into the tyrosine of a random poly Glu-Tyr polymer substrate of composition, Glu:Tyr=4:1 (Sigma, cat. no. P-0275). The following were the final concentrations of the assay components: 0.05 M HEPES, pH 7.6, 10 mM MgCl2, 2 mM DTT, 0.25 mg/ml BSA, 10 μM ATP (1-2 uCi ^33P-ATP per reaction), 5 mg/ml poly Glu-Tyr, and 1-2 units of recombinant human Src kinase. In a typical assay, all the reaction components with the exception of ATP were pre-mixed and aliquoted into assay plate wells.
Inhibitors dissolved in DMSO were added to the wells to give a final DMSO concentration of 2.5%. The assay plate was incubated at 30° C. for 10 min before initiating the reaction with ^33P-ATP. After 20 min of reaction, the reactions were quenched with 150 μl of 10% trichloroacetic acid (TCA) containing 20 mM Na3PO4. The quenched samples were then transferred to a 96-well filter plate (Whatman, UNI-Filter GF/F Glass Fiber Filter, cat no. 7700-3310) installed on a filter plate vacuum manifold. Filter plates were washed four times with 10% TCA containing 20 mM Na3PO4 and then 4 times with methanol. 200 μl of scintillation fluid was then added to each well. The plates were sealed and the amount of radioactivity associated with the filters was quantified on a TopCount scintillation counter. The radioactivity incorporated was plotted as a function of the inhibitor concentration. The data was fitted to a competitive inhibition kinetics model to get the Ki for the compound.
(§1) The ADP produced from ATP by the human recombinant Src kinase-catalyzed phosphorylation of poly Glu-Tyr substrate was quanitified using a coupled enzyme assay (Fox et al (1998) Protein Sci 7, 2249). In this assay one molecule of NADH is oxidised to NAD for every molecule of ADP produced in the kinase reaction. The disappearance of NADH can be conveniently followed at 340 nm.
(§2) The following were the final concentrations of the assay components: 0.025 M HEPES, pH 7.6, 10 mM MgCl2, 2 mM DTT, 0.25 mg/ml poly Glu-Tyr, and 25 nM of recombinant human Src kinase. Final concentrations of the components of the coupled enzyme system were 2.5 mM phosphoenolpyruvate, 200 μM NADH, 30 μg/ml pyruvate kinase and 10 μg/ml lactate dehydrogenase.
(§3) In a typical assay, all the reaction components with the exception of ATP were pre-mixed and aliquoted into assay plate wells. Inhibitors dissolved in DMSO were added to the wells to give a final DMSO concentration of 2.5%. The assay plate was incubated at 30 C. for 10 min before initiating the reaction with 100 μM ATP. The absorbance change at 340 nm with time, the rate of the reaction, was monitored on a molecular devices plate reader. The data of rate as a function of the inhibitor concentration was fitted to compettive inhibition kinetics model to get the Ki for the compound.

human Lck kinase = human Lck kinase (UniProt P06239); experiment: Lck inhibition assay (A: radioactivity-based or B: spectrophotometric coupled-enzyme assay); format: biochemical; settings: read-out: Lck Activity (Ki rating)
Procedure: The compounds were evaluated as inhibitors of human Lck kinase using either a radioactivity-based assay or spectrophotometric assay.
The compounds were assayed as inhibitors of full length bovine thymus Lck kinase (from Upstate Biotechnology, cat. no. 14-106) expressed and purified from baculo viral cells. Lck kinase activity was monitored by following the incorporation of ^33p from ATP into the tyrosine of a random poly Glu-Tyr polymer substrate of composition, Glu:Tyr=4:1 (Sigma, cat. no. P-0275). The following were the final concentrations of the assay components: 0.025 M HEPES, pH 7.6, 10 mM MgCl2, 2 mM DTT, 0.25 mg/ml BSA, 10 μM ATP (1-2 μCi ^33P-ATP per reaction), 5 mg/ml poly Glu-Tyr, and 1-2 units of recombinant human […] kinase. In a typical assay, all the reaction components with the exception of ATP were pre-mixed and aliquoted into assay plate wells. Inhibitors dissolved in DMSO were added to the wells to give a final DMSO concentration of 2.5%. The assay plate was incubated at 30 C. for 10 min before initiating the reaction with ^33P-ATP. After 20 min of reaction, the reactions were quenched with 150 μl of 10% trichloroacetic acid (TCA) containing 20 mM Na3PO4. The quenched samples were then transferred to a 96-well filter plate (Whatman, UNI-Filter GF/F Glass Fiber Filter, cat no. 7700-3310) installed on a filter plate vacuum manifold. Filter plates were washed four times with 10% TCA containing 20 mM Na3PO4 and then 4 times with methanol. 200 μl of scintillation fluid was then added to each well. The plates were sealed and the amount of radioactivity associated with the filters was quantified on a TopCount scintillation counter. The radioactivity incorporated was plotted as a function of the inhibitor concentration. The data was fitted to a competitive inhibition kinetics model to get the Ki for the compound.
as §1, with “Lck” for “Src”
as §2, with “DTT, 5” for “DTT, 0.25”, “and 50” for “and 25”, “human Lck” for “human Src”
as §3, with “30°” for “30”, “150” for “100”, “competitive” for “compettive”

| Ki (human Src kinase) | Ki (human Lck kinase) | Compound |
| --- | --- | --- |
| < 100 nM | < 100 nM | CCCCS(=O)(=O)Nc1cccc(Nc2nccc(-c3sc(SC)c(C#N)c3-c3cccnc3)n2)c1 [VI-141] |
| < 100 nM | < 100 nM | CSc1sc(-c2ccnc(Nc3cccc(NC(=O)CCCNC(C)=O)c3)n2)c(-c2cccnc2)c1C#N [VI-130] |
| < 100 nM | < 100 nM | CSc1sc(-c2ccnc(Nc3cccc(OCCCNCCCO)c3)n2)c(-c2cccc(O)c2)c1C#N [VI-135] |
| < 100 nM | < 100 nM | CSc1sc(-c2ccnc(Nc3cccc(OCCCNCCO)c3)n2)c(-c2cccc(O)c2)c1C#N [VI-134] |
| 100 to 1000 nM | < 100 nM | CSc1sc(-c2ccnc(Nc3cccc(OCCCNCCO)c3)n2)c(-c2cccc(OCc3ccccc3)c2)c1C#N [VI-132] |
| < 100 nM | < 100 nM | CSc1sc(-c2ccnc(Nc3cccc(OCCCNCCCO)c3)n2)c(-c2cccc(OCc3ccccc3)c2)c1C#N [VI-133] |
| < 100 nM | < 100 nM | CSc1sc(-c2nc(Nc3cccc(OCCN4CCC(CO)CC4)c3)ncc2C)c(-c2cccnc2)c1C#N [VI-120] |

More lines, now with the values behind:

| Compound | Ki (human Src kinase) | Ki (human Lck kinase) |
| --- | --- | --- |
| N#Cc1c(O)sc(-c2ccnc(Nc3cccc(OCc4ccccc4)c3)n2)c1-c1ccccc1 [IIa-42, 5-[2-(3-Benzyloxy-phenylamino)-pyrimidin-4-yl]-2-hydroxy-4-phenyl-thiophene-3-carbonitrile] | < 100 nM | < 100 nM |
| CCNc1sc(-c2ccnc(Nc3cccc(OC)c3)n2)c(-c2ccccc2)c1C(=O)OCC [IIa-90, 2-Ethylamino-5-[2-(3-methoxy-phenylamino)-pyrimidin-4-yl]-4-phenyl-thiophene-3-carboxylic acid ethyl ester] | > 1000 nM | 100 to 1000 nM |
| CSc1sc(-c2nc(Nc3cccc(OCCCN4CCOCC4)c3)ncc2C)c(-c2cccnc2)c1C#N [VI-117] | 100 to 1000 nM | 100 to 1000 nM |
| COCCNCCCOc1cccc(Nc2ncc(C)c(-c3sc(SC)c(C#N)c3-c3cccnc3)n2)c1 [VI-20] | < 100 nM | < 100 nM |
| CSc1sc(-c2nc(Nc3cccc(OCCNCCO)c3)ncc2C)c(-c2cccnc2)c1C#N [VI-119] | 100 to 1000 nM | < 100 nM |
| CSc1sc(-c2nc(Nc3cccc(OCCCN4CCNCC4)c3)ncc2C)c(-c2cccnc2)c1C#N [VI-118] | 100 to 1000 nM | < 100 nM |
| CSc1sc(-c2nc(Nc3cccc(OCCCN4CCC[C@H]4CO)c3)ncc2C)c(-c2cccnc2)c1C#N [VI-24] | < 100 nM | < 100 nM |
